US10975287B2, “Heterocyclic amides useful as protein modulators” (GlaxoSmithKline Intellectual Property Development Limited, priority 2017, dated 2021)
Where two headings read alike, the source gives them in different places.

What was measured:
[1] = system: C-terminal Domain (CTD) of human STING; conditions: 500 pM STING, 100 nM Alexa488 probe, 15 min at room temperature
[2] = system: T1, Full-length human STING; format: cell-based
T1 construct: Full-length human STING (Gene ID 340061); expressed in transfected cells; host or cells: HEK293T
Procedure: Functional Assay III (HEX WT agonist assay): Activation of STING in cells may be determined using a luciferase reporter assay in human embryonic kidney cells (HEK293T) co-transfected with plasmids expressing STING and the enzyme firefly luciferase driven by the interferon stimulated response element promoter (pISRE-Luc) (Agilent Technologies). […] Transfections were prepared using a cell suspension with Fugene® 6 following the manufacturer's instructions (3:1 Fugene®:DNA). […] of the transfection suspension was dispensed into wells of a 384-well plate containing 250 nL of a compound of Formula (I). […] Control wells expected to generate maximal activation of STING were cotransfected with a cGAS expression plasmid. Plates were sealed and incubated for 24 hours at 37° C. The expression of firefly luciferase was processed using Steady-Glo® luciferase assay system (Promega) and was analyzed using a standard laboratory luminescence plate reader. Data was normalized to luminescence response in the presence of cGAS, was plotted as a function of compound concentration, and fit using a standard model of receptor activation to derive the pEC50.

[3] = HEK293T co-transfected with STING and pISRE-Luc, 24 hours at 37° C., normalized to cGAS response

Structure (SMILES) | FRET assay (pIC50) [1] | HEK assay (pEC50) [2, 3] | HEK assay (pEC50) [2]
CCn1nc(C)cc1C(=O)Nc1nc2cc(C(N)=O)ccc2n1C [Example 1, 2-(1-ethyl-3-methyl-1H-pyrazole-5-carboxamido)-1-methyl-1H-benzo[d]imidazole-5-carboxamide] | 4.4 | 4.4 | –
C=CCn1c(NC(=O)c2cc(C)nn2CC)nc2cc(C(N)=O)ccc21 [Example 2, 1-allyl-2-(1-ethyl-3-methyl-1H-pyrazole-5-carboxamido)-1H-benzo[d]imidazole-5-carboxamide] | 4.6 | 4.5 | –
CCCn1c(NC(=O)c2cc(C)nn2CC)nc2cc(C(N)=O)cc(OC)c21 [Example 3, 2-(1-ethyl-3-methyl-1H-pyrazole-5-carboxamido)-7-methoxy-1-propyl-1H-benzo[d]imidazole-5-carboxamide] | 5.5 | 6 | –
C=CCn1c(NC(=O)c2cc(C)nn2CC)nc2cc(C(N)=O)cc(OCCCO)c21 [Example 4, 1-Allyl-2-(1-ethyl-3-methyl-1H-pyrazole-5-carboxamido)-7-(3-hydroxypropoxy)-1H-benzoylimidazole-5-carboxamide] | 4.9 | 4.5 | –
CCn1nc(C)cc1C(=O)Nc1nc2cc(C(N)=O)cc(OC)c2n1CCCN1CCOCC1 [Example 9, 2-(1-ethyl-3-methyl-1H-pyrazole-5-carboxamido)-7-methoxy-1-(3-morpholinopropyl)-1H-benzo[d]imidazole-5-carboxamide] | 5.1 | 5.1 | –
CCCn1c(NC(=O)c2cc(C)nn2CC)nc2cc(C(N)=O)cc(OCCCO)c21 [Example 13, 2-(1-ethyl-3-methyl-1H-pyrazole-5-carboxamido)-7-(3-hydroxypropoxy)-1-propyl-1H-benzo-[d]imidazole-5-carboxamide] | – | 5.4 | –
C=CCn1c(NC(=O)c2cc(C)nn2CC)nc2cc(C(N)=O)cc(OC)c21 [Example 14, 1-allyl-2-(1-ethyl-3-methyl-1H-pyrazole-5-carboxamido)-7-methoxy-1H-benzo[d]imidazole-5-carboxamide] | <3.9 | 5.6 | –
CCn1nc(C)cc1C(=O)Nc1nc2cc(C(N)=O)cc(OC)c2n1CCCCNC(=O)OC(C)(C)C [Example 17, tert-butyl (4-(5-carbamoyl-2-(1-ethyl-3-methyl-1H-pyrazole-5-carboxamido)-7-methoxy-1H-benzo[d]imidazol-1-yl)butyl)carbamate] | – | 6.1 | –
CCCCn1c(NC(=O)c2cc(C)nn2CC)nc2cc(C(N)=O)cc(OC)c21 [Example 24, 1-butyl-2-(1-ethyl-3-methyl-1H-pyrazole-5-carboxamido)-7-methoxy-1H-benzo[d]imidazole-5-carboxamide] | – | 6.0 | –
CCn1nc(C)cc1C(=O)Nc1nc2cc(C(N)=O)cc(OC)c2n1CCC(C)C [Example 27, (1-ethyl-3-methyl-1H-pyrazole-5-carboxamido)-1-isopentyl-7-methoxy-1H-benzo[d]imidazole-5-carboxamide] | – | 5.5 | –
CCCn1c(NC(=O)c2cc(C)nn2CC)nc2c(OC)c(C(N)=O)ccc21 [Example 30, 2-(1-ethyl-3-methyl-1H-pyrazole-5-carboxamido)-4-methoxy-1-propyl-1H-benzo[d]imidazole-5-carboxamide] | 5.0 | – | –
CCn1nc(C)cc1C(=O)Nc1nc2cc(C(N)=O)cc(OC(C)C)c2n1CCCN1CCOCC1 [Example 37, 2-(1-ethyl-3-methyl-1H-pyrazole-5-carboxamido)-7-isopropoxy-1-(3-morpholinopropyl)-1H-benzo[d]imidazole-5-carboxamide] | 5.5 | – | –
CCCn1c(NC(=O)c2cc(C)nn2CC)nc2cc(C(N)=O)cc(CN3CCOCC3)c21 [Example 41, 2-(1-ethyl-3-methyl-1H-pyrazole-5-carboxamido)-7-(morpholinomethyl)-1-propyl-1H-benzoylimidazole-5-carboxamide] | 5.4 | – | –
CCn1nc(C)cc1C(=O)Nc1nc2cc(C(N)=O)cc(OC)c2n1CCCc1cccnc1 [Example 50, 2-(1-ethyl-3-methyl-1H-pyrazole-5-carboxamido)-7-methoxy-1-(3-(pyridin-3-yl)propyl)-1H-benzoylimidazole-5-carboxamide] | 5.3 | – | –
CCn1nc(C)cc1C(=O)Nc1nc2cc(C(N)=O)cc(OC)c2n1CCCNC(=O)OCc1ccccc1 [Example 53, benzyl (3-(5-carbamoyl-2-(1-ethyl-3-methyl-1H-pyrazole-5-carboxamido)-7-methoxy-1H-benzo[d]imidazol-1-yl)propyl)carbamate] | – | – | 6.2
CCCn1c(NC(=O)c2cc(CC)nn2CC)nc2cc(C(N)=O)cc(OC)c21 [Example 57, 2-(1,3-diethyl-1H-pyrazole-5-carboxamido)-7-methoxy-1-propyl-1H-benzo[d]imidazole-5-carboxamide] | – | 5.5 | –
